Results: patent publication US9988381B2, “Five-member-heterocycle fused pyridine compounds, method of producing the same, and use thereof” (SHANGHAI INSTITUTE OF MATERIA MEDICA, CHINESE ACADEMY OF …, priority 2013, dated 2018)
Like-named read-outs stand apart in the source and are kept apart here.

Columns and labels:
[1] = target: T1, c-Met kinase domain recombinant protein (Homo sapiens, UniProt P08581); assay: biochemical; details: read-out: Inhibition rate at 10 μM (%)
T1 construct: 50 μL diluted solution of c-Met kinase domain recombinant protein in reaction buffer was added to initiate the reaction
Summary of the method: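 Recombinant c-Met kinase domain phosphorylated immobilised Poly(Glu,Tyr)4:1 for 1 h at 37 °C in 50 mM HEPES pH 7.4, 50 mM MgCl2, 0.5 mM MnCl2, 0.2 mM Na3VO4, 1 mM DTT with ATP. Product measured by anti-phosphotyrosine PY99 ELISA (HRP, 490 nm), giving percent inhibition; ATP-free wells served as control.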

[2] = target: T1, c-Met kinase domain recombinant protein; assay: biochemical; details: for inhibition at 0.1 µM: read-out: Average inhibition rate at 0.1 μM (%); for inhibition at 1 µM: read-out: Average inhibition rate at 1 μM (%); for inhibition at 10 µM: read-out: Average inhibition rate at 10 μM (%)
Summary of the method: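 IC50 came from a four-parameter fit of inhibition rates measured by anti-phosphotyrosine (PY99/HRP) ELISA at 490 nm. The reaction ran 1 hour at 37° C with 5 μM ATP, c-Met kinase domain protein and Poly(Glu,Tyr)4:1-coated wells, in HEPES pH 7.4 buffer containing MgCl2, MnCl2, Na3VO4 and DTT.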

MKN45 cell = assay: Test III: growth inhibition of gastric tumor cell MKN45 (SRB); assay type: cell-based; details: Homo sapiens; for inhibition at 0.2 µM: MKN-45, read-out: Cell proliferation inhibition rate at 200 nM (%), MKN45, 200 nM
Protocol: Assays on the growth inhibition of the compounds against gastric tumor cell MKN45, non-small cell carcinoma EBC-1 cell (both are MET persistent activated cell lines due to MET gene amplification, and are Met dependent tumor cell lines, MKN45 cell was purchased from JCRB, Japan, EBC-1 cell was purchased from ATCC, USA) were detected using sulforhodamine B (SRB) staining. […] After incubation with compound for 72 hours, the incubation was terminated, adherent cells were retained and medium was discarded, 10% (w/v) trichloroacetic acid (100 μL pre well) was added, the cells were fixed at 4° C. for 1 hour, then rinsed with distilled water for 5 times, after dried at room temperature, SRB solution (4 mg/mL, dissolved in 1% glacial acetic acid) was added at 100 μL per well, incubated and stained at room temperature for 15 minutes, then rinsed with 1% glacial acetic acid for 5 times to remove any unbound SRB, dried at room temperature, then 10 mM Tris solution was added at 100 μL per well, the optical density (OD) value at 515 nm was measured using VERSMax microplate reader.
Experiments were conducted in duplicates. IC50 value was calculated by fitting the data for a four parameter fit using inhibition curve, the results are shown below in Table 2.

EBC-1 cell = assay: Test III: growth inhibition of non-small cell carcinoma EBC-1 cell (SRB); assay type: cell-based; details: Homo sapiens, EBC-1, 72 h
[3] = test system: human lung cancer EBC-1 xenograft; assay: Test IV: human non-small cell lung cancer EBC-1 xenograft growth in nude mice; assay type: in vivo
Protocol: EBC-1 cells were implanted subcutaneously in the right axilla of nude mice at 5×10^6 cells per mouse, xenograft developed thereby was passaged in nude mice for 3 generations prior to use. Tumor tissue at rapid growth phase was taken, minced under sterile condition into pieces of about 1.5 mm^3, then implanted subcutaneously in the right axilla of nude mice.
Xenografted tumor diameters were measured twice per week, and body weights of the mice were measured at the same time. Tumor Volume (TV) was calculated by the following equation: TV=1/2×a×b^2, wherein a, b refers to the length and width, respectively. Based on the measurement, Relative Tumor Volume (RTV) was calculated by the following equation: RTV=Vt/V0, wherein V0 is the tumor volume measured when divided for administration (i.e., do), Vt is the tumor volume measured at each timepoint.

[4] = MKN-45, 72 h, read-out: Cell proliferation inhibition rate at 1 μM (%)
[5] = MKN-45, read-out: Cell proliferation inhibition rate at 1 μM (%), MKN45, 1 μM, 72 hours

T1 sequence (P08581 1078-1345 limits assumed): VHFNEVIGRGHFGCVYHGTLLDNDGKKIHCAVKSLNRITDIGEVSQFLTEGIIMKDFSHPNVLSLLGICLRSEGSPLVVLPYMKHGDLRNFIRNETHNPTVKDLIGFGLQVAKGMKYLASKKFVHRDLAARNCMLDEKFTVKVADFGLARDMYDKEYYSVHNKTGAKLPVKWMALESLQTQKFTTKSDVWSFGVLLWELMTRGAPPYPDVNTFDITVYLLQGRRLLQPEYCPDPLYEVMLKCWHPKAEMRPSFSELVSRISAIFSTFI

Structure (SMILES) | inhibition at 10 µM [1] [%] | inhibition at 0.1 µM [2] [%] | inhibition at 1 µM [2] [%] | inhibition at 10 µM [2] [%] | inhibition at 1 µM (MKN45 cell; [5]) [%] | also measured
Cn1cc(-c2cnc3cnn(S(=O)(=O)c4cnc5ccc(-c6ccsc6)cn45)c3c2)cn1 [Example 72, 1-{[6-(3-thiophene)-imidazo[1,2-a]pyridine]-3-sulfonyl}-6-[(1-methyl)-4-pyrazolyl]-1-H-pyrazolo[4,3-b]pyridine] | 80.9 | 70.1 | 80.3 | 76.5 | – | IC50 [2]: 40 ± 40 pM; inhibition at 1 µM (MKN45 cell; [4]): 72.8%
CN(C)C(=O)c1ccc(-c2ccc3ncc(S(=O)(=O)n4ncc5ncc(-c6cnn(C)c6)cc54)n3c2)cc1 [Example 73, 1-{[6-(4-dimethylaminocarbonylphenyl)-imidazo[1,2-a]pyridine]-3-sulfonyl}-6-[(1-methyl)-4-pyrazolyl]-1-H-pyrazolo[4,3-b]pyridine] | 59.6 | 78 | 72.8 | 76.9 | 14.4 | –
Cn1cc(-c2cnc3cnn(S(=O)(=O)c4cnc5ccc(-c6cnn(C7CCN(C(=O)OC(C)(C)C)CC7)c6)cn45)c3c2)cn1 [Example 76, 1-{(6-{{1-[(1-t-butoxycarbonyl)-4-piperidinyl]}-4-pyrazolyl}-imidazo[1,2-a]pyridine)-3-sulfonyl}-6-[(1-methyl)-4-pyrazolyl]-1-H-pyrazolo[4,3-b]pyridine] | > 76.3 | 78 | 75.5 | 78.3 | 14.9 | –
Cn1cc(-c2cnc3cnn(S(=O)(=O)c4cnc5ccc(-c6ccc(F)cc6)cn45)c3c2)cn1 [Example 81, 1-{[6-(4-fluorophenyl)-imidazo[1,2-a]pyridine]-3-sulfonyl}-6-[(1-methyl)-4-pyrazolyl]-1-H-pyrazolo[4,3-b]pyridine] | > 68.7 | 72.9 | 73.6 | 80.2 | 24.7 | –
Cc1ccc(-c2ccc3ncc(S(=O)(=O)n4ncc5ncc(-c6cnn(C)c6)cc54)n3c2)cc1 [Example 90, 1-{[6-(4-methylphenyl)-imidazo[1,2-a]pyridine]-3-sulfonyl}-6-[(1-methyl)-4-pyrazolyl]-1-H-pyrazolo[4,3-b]pyridine] | > 72.2 | 69 | 83 | 81.1 | 17.6 | –
Cn1cc(-c2cnc3cnn(S(=O)(=O)c4cnc5ccc(-c6ccc(CN7CCOCC7)cc6)cn45)c3c2)cn1 [Example 91, 1-{[6-(4-morpholinomethylphenyl)-imidazo[1,2-a]pyridine]-3-sulfonyl}-6-[(1-methyl)-4-pyrazolyl]-1-H-pyrazolo[4,3-b]pyridine] | > 69.4 | 77.3 | 85.5 | 74.1 | 72.9 | –
COc1ccccc1-c1ccc2ncc(S(=O)(=O)n3ncc4ncc(-c5cnn(C)c5)cc43)n2c1 [Example 97, 1-{[6-(2-methoxyphenyl)-imidazo[1,2-a]pyridine]-3-sulfonyl}-6-[(1-methyl)-4-pyrazolyl]-1-H-pyrazolo[4,3-b]pyridine] | > 63.8 | 51.7 | 62.7 | 65.5 | – | IC50 [2]: 500 ± 100 pM; inhibition at 1 µM (MKN45 cell; [4]): 67.8%
Cn1cc(-c2cnc3cnn(S(=O)(=O)c4cnc5ccc(-c6ccc(F)nc6)cn45)c3c2)cn1 [Example 99, 1-{[6-(2-fluoro-5-pyridinyl)-imidazo[1,2-a]pyridine]-3-sulfonyl}-6-[(1-methyl)-4-pyrazolyl]-1-H-pyrazolo[4,3-b]pyridine] | > 73.3 | 55.5 | 66.2 | 71.8 | 67.9 | inhibition at 0.2 µM (MKN45 cell; 72 hours): 48.5%
Cn1cc(-c2cnc3cnn(S(=O)(=O)c4cnc5ccc(-c6cccc(C#N)c6)cn45)c3c2)cn1 [Example 100, 1-{[6-(3-cyanophenyl)-imidazo[1,2-a]pyridine]-3-sulfonyl}-6-[(1-methyl)-4-pyrazolyl]-1-H-pyrazolo[4,3-b]pyridine] | > 60.4 | 83.7 | 87.3 | 85.4 | 66.6 | inhibition at 0.2 µM (MKN45 cell; 72 hours): 63.8%
CNC(=O)c1ccc(-c2ccc3ncc(S(=O)(=O)n4ncc5ncc(-c6cnn(CCN(C)C)c6)cc54)n3c2)cc1F [Example 102, 1-{(6-(3-fluoro-4-methylaminocarbonylphenyl)-imidazo[1,2-a]pyridine)-3-sulfonyl}-6-[(2-dimethylaminoethyl)-4-pyrazolyl]-1-H-pyrazolo[4,3-b]pyridine] | > 65.5 | 73.7 | 85.3 | 95.4 | 67.9 | inhibition at 0.2 µM (MKN45 cell; 72 hours): 63.8%
CC(C)N1CCC(n2cc(-c3cnc4cnn(S(=O)(=O)c5cnc6ccc(-c7cnn(C)c7)cn56)c4c3)cn2)CC1 [Example 145, 1-{(6-[(1-methyl)-4-pyrazolyl]-imidazo[1,2-a]pyridine)-3-sulfonyl}-6-{(1-[(1-isopropyl)-4-piperidinyl]}-4-pyrazolyl}-1-H-pyrazolo[4,3-b]pyridine] | – | 90.6 | 87.1 | – | – | IC50 [2]: 600 ± 100 pM; inhibition at 0.2 µM (EBC-1 cell; read-out: Cell proliferation inhibition rate at 200 nM (%)): 92.4%; inhibition at 1 µM (EBC-1 cell; read-out: Cell proliferation inhibition rate at 1 μM (%)): 92.8%; TV (mm^3, mean ± SD) d21 ([3]; 50 mg/kg po qd/21): 36 ± 49 mm^3; Weight (g) d21 ([3]; 50 mg/kg po qd/21): 19.9 g; GI (%) ([3]; 50 mg/kg po qd/21, d21): 106.14%; RTV (mean ± SD) ([3]; 50 mg/kg po qd/21, d21): 0.31 ± 0.50; T/C (%) ([3]; 50 mg/kg po qd/21, day 21): 2.36%; TV (mm^3, mean ± SD) d21 ([3]; 100 mg/kg po qd/21): 8 ± 13 mm^3; Weight (g) d21 ([3]; 100 mg/kg po qd/21): 19.1 g; GI (%) ([3]; 100 mg/kg po qd/21, d21): 107.77%; RTV (mean ± SD) ([3]; 100 mg/kg po qd/21, d21): 0.05 ± 0.09; T/C (%) ([3]; 100 mg/kg po qd/21, day 21): 0.40%
